{"source": "patent US6656948B2", "about": "“Cytotoxic compounds: derivatives of the pyrido[2,3,4-kl]acridine ring system” (Universidad Complutense de Madrid, priority 1998, dated 2003)", "format_in_all_cases": "cell-based", "key": {"[1]": {"system": "P-388 (ATCC CCL-46, suspension culture of a lymphoid neoplasm from DBA/2 mouse)", "assay": "Cytotoxicity against P-388 cells, approximate IC50 from growth versus control wells", "settings": "P388, 72 h, three days of incubation", "procedure": "(§1) Its antitumor activity has been detected in vitro by culturing the tumor cells following the methodology described by Bergeron et al. ^16, and by Schroeder et al ^16. Activity against different tumors as mouse lymphoma, human NSC lung carcinoma, human melanoma and human colon carcinoma has been observed.\n(§2) Biological activity: Cells were maintained in logarithmic phase of growth in Eagle's Minimum Essential Medium, with Earle's Balanced Salts, with 2.0 mM L-glutamine, with non-essential amino acids, without sodium bicarbonate (EMEM/neaa); suplemented with 10% Fetal Calf Serum (FCS), 10^−2 M sodium bicarbonate and 0,1 g/l penicillin-G+ streptomycin sulfate.\n(§3) The tumor cell lines employed have been P-388 (ATCC CCL-46, suspension culture of a lymphoid neoplasm from DBA/2 mouse), A-549 (ATCC CCL-185, monolayer culture of a human lung carcinoma), HT-29 (ATCC HTB-38, monolayer culture of a human colon carcinoma) and MEL-28 (ATCC […], monolayer culture of a human melanoma).\n(§4) P-388 cells were seeded into 16 mm wells at 1×10^4 cells per well in 1 ml aliquots of MEM 5FCS containing the indicated concentration of drug. A separate set of cultures without drug was seeded as control growth to ensure that cells remained in exponential phase of growth. All determinations were carried out in duplicate. After three days of incubation at 37° C., 10% CO2 in a 98% humide atmosphere, an aproximate IC50 was determined by comparing the growth in wells with drug to the growth in wells control.\n(§5) In Table I are presented the cytotoxicity expressed as IC50 in μg/ml and μM"}, "[2]": {"system": "A-549 (ATCC CCL-185, monolayer culture of a human lung carcinoma)", "assay": "Cytotoxicity against A-549 cells, crystal violet staining, approximate IC50", "settings": "A549, 72 h, three days of incubation", "procedure": "as §1, §2, §3\nas §4, with “A-549, HT-29 and MEL-28” for “P-388 cells”, “2×10^4” for “1×10^4”, “10FCS” for “5FCS”, “the wells were stained with 0.1% Crystal Violet. An” for “an”\nas §5"}, "[3]": {"system": "HT-29 (ATCC HTB-38, monolayer culture of a human colon carcinoma)", "assay": "Cytotoxicity against HT-29 cells, crystal violet staining, approximate IC50", "settings": "HT-29, 72 h, three days of incubation", "procedure": "as §1, §2, §3\nas §4, with “A-549, HT-29 and MEL-28” for “P-388 cells”, “2×10^4” for “1×10^4”, “10FCS” for “5FCS”, “the wells were stained with 0.1% Crystal Violet. An” for “an”\nas §5"}, "[4]": {"system": "MEL-28 (ATCC HTB-38, monolayer culture of a human melanoma)", "assay": "Cytotoxicity against MEL-28 cells, crystal violet staining, approximate IC50", "settings": "SK-MEL-28, 72 h, three days of incubation", "procedure": "as §1, §2, §3\nas §4, with “A-549, HT-29 and MEL-28” for “P-388 cells”, “2×10^4” for “1×10^4”, “10FCS” for “5FCS”, “the wells were stained with 0.1% Crystal Violet. An” for “an”\nas §5"}, "[5]": {"system": "several mammalian cancer cell lines", "assay": "In vitro antitumor activity by culturing tumor cells (overall statement)", "settings": "mouse lymphoma, human NSC lung carcinoma, human melanoma, human colon carcinoma", "source_text": "as §1"}}}
{"smiles": "Cc1cc(=O)[nH]c2c1-c1nc3ccccc3c3ccnc(c13)C2=O", "note": "[IB-96213, 12-Methyl-9H-benzo[b]pyrido[4,3,2-d,e](1,7)phenantroline-8,10-dione]", "values": [{"measurement": "IC50", "setting": "[1]; duplicate", "result": 0.1, "unit": "µg/mL"}, {"measurement": "IC50", "setting": "[1]; value in brackets", "result": 320, "unit": "nM"}, {"measurement": "IC50", "setting": "[2]; duplicate", "result": 1, "unit": "ng/mL"}, {"measurement": "IC50", "setting": "[2]; value in brackets", "result": 3, "unit": "nM"}, {"measurement": "IC50", "setting": "[3]; duplicate", "result": 1, "unit": "µg/mL"}, {"measurement": "IC50", "setting": "[3]; value in brackets", "result": 3180, "unit": "nM"}, {"measurement": "IC50", "setting": "[4]; duplicate", "result": 0.001, "unit": "µg/mL"}, {"measurement": "IC50", "setting": "[4]; value in brackets", "result": 3, "unit": "nM"}, {"measurement": "antitumor activity against several mammalian cancer cell lines", "setting": "[5]", "result": "good antitumor activity"}]}
{"smiles": "O=C1c2c(O)ccnc2-c2nc3ccccc3c3ccnc1c23", "note": "[IB-98205, 9-hydroxybenzo[b]pyrido[4,3,2-d,e](1,10)phenantrolin-8-one]", "values": [{"measurement": "IC50", "setting": "[1]; duplicate", "result": 1.25, "unit": "µg/mL"}, {"measurement": "IC50", "setting": "[1]; value in brackets", "result": 4180, "unit": "nM"}, {"measurement": "IC50", "setting": "[2]; duplicate", "result": 12, "unit": "ng/mL"}, {"measurement": "IC50", "setting": "[2]; value in brackets", "result": 40, "unit": "nM"}, {"measurement": "IC50", "setting": "[3]; duplicate", "result": 0.12, "unit": "µg/mL"}, {"measurement": "IC50", "setting": "[3]; value in brackets", "result": 400, "unit": "nM"}, {"measurement": "IC50", "setting": "[4]; duplicate", "result": 0.05, "unit": "µg/mL"}, {"measurement": "IC50", "setting": "[4]; value in brackets", "result": 170, "unit": "nM"}, {"measurement": "antitumor activity against several mammalian cancer cell lines", "setting": "[5]", "result": "good antitumor activity"}]}
